In patent publication US20060019335A1, “Compositions and methods to promote c-IAP autodegradation” (priority 2004, published 2006):
Residues, ends and D or L forms follow the SMILES beside them. *: point of attachment. Cbz = O=C(OCc1ccccc1)*

Legend:
[1] = test system: c-IAP1; experiment: Co-transfection of HeLa cells with c-IAP1 and Smac plasmids, Western blot; format: cell-based, human; conditions: MG132 added to the culture medium
Method: (§1) Transfection of cultured Cells—HeLa cells were grown in DMEM supplemented with 10% fetal bovine serum. Cells were seeded onto 6-well plates the day before transfection and transfected at 70% confluence by using Lipofectin combined with Plus reagent (Invitrogen) according to the manufacture's protocols. The IAP expression plasmids (3 μg each for c-IAP1, c-IAP2 and XIAP, and 250 ng each for Livin αand Livin β) together with 2.5 μg of Smac expression plasmids or pcDNA3.1(−) blank plasmid were used for single-well transfection in the absence of antibiotics. The cells were harvested 12 hours after the transfection and lysed with 0.5% CHAPS in 20 mM HEPES (pH 7.4), 10 mM KCl, 1 mM MgCl2 and 1 mM DTT. The lysates were centrifuged and the protein concentrations of the supernatants were quantified by the modified Bradford method (36).
(§2) Western Blot analysis—Proteins were resolved by SDS-PAGE and transferred to nitrocellulose filters. The filters were blocked with 5% milk and probed with antibodies as indicated. The signals were visualized with the enhanced chemiluminescence method.
(§3) To investigate the effect of Smac polypeptide on IAP protein levels, HeLa cells were transfected with the expression vectors for Smac and various IAPs. Briefly, HeLa cells were either transfected with IAP alone (Lane 2, 4 and 6), or together with Smac polypeptide (Lane 3, 5 and 7), or with Smac polypeptide alone (Lane 1). Equal amounts of cell lysates (7 μg) were immunoblotted with either the HRP-conjugated anti-FLAG antibody (shown in the top panel) in order to detect N-terminal 3×FLAG tagged IAPs, or with the anti-c-Myc antibody (bottom panel) to detect C-terminal c-Myc tagged Smac. The ubiquitin fusion technique was used to secure the production of mature Smac protein with the expected N-terminal AVPI motif (6, 37).
(§4) Because it is known that the His^588 residue in the RING finger domain is important for the IAP E3 activity (22), this residue was mutated to test whether Smac stimulated the ubiquitylation-mediated degradation of both c-IAP1 and c-IAP2. In each case, His^588 in c-IAP1 and His^574 in c-IAP2 was mutated to Ala (H588A mutant and H574A mutant, respectively) and the results are depicted in FIGS. 2A and 2B. The c-IAP1 WT or H588A mutant plasmids together with either Smac WT or Smac ΔA mutant, or with pcDNA3.1 (−) blank plasmid were co-transfected into HeLa cells (FIG. 2A). The c-IAP2 WT or H574A mutant plasmids together with either Smac WT or Smac ΔA mutant, or with pcDNA3.1 (−) blank plasmid were co-transfected into HeLa cells (FIG. 2B). As controls, HeLa cells were also transfected with either Smac WT or ΔA plasmids together with the blank p3×FLAG-CMV-7 plasmid. The transfected cells were cultivated either in the absence (see lanes 1-7 of FIGS. 2A and 2B) or in the presence (see lanes 8-14 of FIGS. 2A and 2B) of MG132. Equal amounts of soluble proteins (7 μg) from the transfected cells were immunoblotted with either the HRP-conjugated anti-FLAG antibody (see top panel of FIGS. 2A and 2B) to detect N-terminal 3×FLAG tagged IAPs, or with the anti-c-Myc antibody (see middle panel of FIGS. 2A and 2B) to detect C-terminal c-Myc tagged Smac. The anti-Actin immunoblotting results were to show equal protein loading (see bottom panel of FIGS. 2A and 2B).

[2] = target: T1, c-IAP2 (Homo sapiens, UniProt Q13489); experiment: Co-transfection of HeLa cells with c-IAP2 and Smac plasmids, Western blot; format: cell-based; conditions: MG132 added
T1 construct: produced not only the expected full length c-IAP1 or c-IAP2; expressed in transfected cells; host or cells: HeLa
Method: as §1, §2, §3, §4

[3] = target: XIAP (Homo sapiens, UniProt P98170); experiment: Co-transfection of HeLa cells with XIAP and Smac plasmids, Western blot; format: cell-based; set-up: expressed in transfected cells; host or cells: HeLa; conditions: presence of MG132
Method: as §1, §2, §3
It is known that XIAP is ubiquitylated by its own E3 activity when expressed in HEK 293T cells and that this auto-ubiquitylation and subsequent degradation is stimulated by Reaper (26). In the current study, XIAP transiently expressed in HeLa cells was ubiquitylated as well; however, mono-ubiquitylation rather than poly-ubiquitylation of XIAP was the major product (see FIG. 3A). Briefly, XIAP WT or H467A mutant plasmids together with either Smac WT or ΔA, or with pcDNA3.1(−) blank plasmid, were co-transfected into the HeLa cells. As controls, HeLa cells were also transfected with either Smac WT or ΔA plasmids together with the blank p3×FLAG-CMV-7 plasmid. The transfected cells were cultivated either in the absence (see lanes 1-7 of FIG. 3A) or in the presence (see lanes 8-14 of FIG. 3A) of MG132. Equal amounts of soluble proteins (7 μg) from the transfected cells were immunoblotted with either the HRP-conjugated anti-FLAG antibody (see top panel of FIG. 3A) to detect N-terminal 3×FLAG tagged IAPs, or with the anti-c-Myc antibody (see middle panel of FIG. 3A) to detect Smac. The anti-Actin immunoblotting results were to show equal protein loading (see bottom panel of FIG. 3A).

[4] = test system: c-IAP1; experiment: In vitro ubiquitylation assay of purified c-IAP1 and BIR deletion mutants; format: biochemical, human
Method: In vitro ubiquitylation assays—In vitro ubiquitylation assays were carried out as previously described (29). IAP proteins (200 nM) were incubated with or without Smac polypeptide for 2 hours at 30° C. in a reaction system containing 50 mM Tris-HCl (pH 7.5), 50 mM NaCl, 2 mM Mg-ATP, 20 μM mammalian ubiquitin, 100 nM rabbit ubiquitin-activating enzyme (E1) and 400 nM of recombinant human ubiquitin-conjugating enzymes (E2). The reactions were stopped by adding equal volumes of 2×SDS sample loading buffer followed by Western Blot analysis.
To determine whether Smac promotes auto-ubiquitylation of XIAP, purified XIAP (without tag) was incubated for 2 hours at 30° C. either with or without different concentrations of Smac or with Smac ΔA in the reconstituted ubiquitylation reaction system (Ub Mix) consisting of 50 mM Tris-HCl (pH 7.5), 50 mM NaCl, 2 mM Mg-ATP, 20 μM mammalian ubiquitin, 100 nM rabbit ubiquitin-activating enzyme (E1) and 400 nM UbCH6 (E2). The reactions were stopped by adding equal volumes of 2×SDS sample loading buffer and the products were subjected to SDS-PAGE followed by immunoblotting with anti-XIAP antibody. The purified XIAP was active in directing poly-ubiquitylation. But the auto-ubiquitylation of XIAP was not enhanced by Smac.
Smac ΔA and the peptide Smac-7M were used as negative controls. The reactions were stopped by adding equal volumes of 2×SDS sample loading buffer and the products were subjected to SDS-PAGE followed by immunoblotting with anti-c-IAP1 antibody. The arrows indicate the unmodified full length or deleted c-IAP1.
To verify this, stepwise deletion was performed of the first BIR (ΔBIR1, residues 1-161), the first two BIRs (ΔBIR1-2, residues 1-265), or all the three BIR domains (ΔBIR1-2-3, residues 1-339) from c-IAP1. All these mutants and the full-length wild type c-IAP1 were purified as a non-tagged form by using the pTYB11 Intein system (New England Biolabs).
Target sequence in this assay (Q13490 162-618): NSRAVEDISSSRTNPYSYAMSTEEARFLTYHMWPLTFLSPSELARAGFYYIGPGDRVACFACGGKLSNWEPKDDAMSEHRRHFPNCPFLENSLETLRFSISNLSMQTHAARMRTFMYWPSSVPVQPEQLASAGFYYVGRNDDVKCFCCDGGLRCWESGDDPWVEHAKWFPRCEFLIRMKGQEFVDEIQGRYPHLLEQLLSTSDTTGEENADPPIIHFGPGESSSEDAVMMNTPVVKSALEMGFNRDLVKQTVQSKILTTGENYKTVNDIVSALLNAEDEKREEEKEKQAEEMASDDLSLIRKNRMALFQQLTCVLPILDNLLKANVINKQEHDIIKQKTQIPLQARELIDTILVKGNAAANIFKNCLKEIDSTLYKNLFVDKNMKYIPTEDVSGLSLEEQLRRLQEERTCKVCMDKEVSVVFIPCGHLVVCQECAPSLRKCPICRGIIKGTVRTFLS

T1 sequence (Q13489 whole entry): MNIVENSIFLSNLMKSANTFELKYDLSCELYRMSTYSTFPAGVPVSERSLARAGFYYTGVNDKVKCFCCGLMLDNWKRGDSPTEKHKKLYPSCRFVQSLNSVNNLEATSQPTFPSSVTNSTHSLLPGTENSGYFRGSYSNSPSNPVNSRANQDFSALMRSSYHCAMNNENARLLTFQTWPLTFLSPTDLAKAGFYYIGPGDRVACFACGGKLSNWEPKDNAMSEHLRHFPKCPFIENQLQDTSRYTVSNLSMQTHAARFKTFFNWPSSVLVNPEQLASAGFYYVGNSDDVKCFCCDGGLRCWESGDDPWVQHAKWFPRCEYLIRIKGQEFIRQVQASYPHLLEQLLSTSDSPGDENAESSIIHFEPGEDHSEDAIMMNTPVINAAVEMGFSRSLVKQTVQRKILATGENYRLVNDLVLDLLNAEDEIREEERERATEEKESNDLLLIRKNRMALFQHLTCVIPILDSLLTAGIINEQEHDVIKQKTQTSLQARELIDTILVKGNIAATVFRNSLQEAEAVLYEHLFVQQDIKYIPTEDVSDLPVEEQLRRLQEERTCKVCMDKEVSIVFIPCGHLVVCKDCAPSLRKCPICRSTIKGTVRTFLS
Chain of XIAP (P98170 whole entry): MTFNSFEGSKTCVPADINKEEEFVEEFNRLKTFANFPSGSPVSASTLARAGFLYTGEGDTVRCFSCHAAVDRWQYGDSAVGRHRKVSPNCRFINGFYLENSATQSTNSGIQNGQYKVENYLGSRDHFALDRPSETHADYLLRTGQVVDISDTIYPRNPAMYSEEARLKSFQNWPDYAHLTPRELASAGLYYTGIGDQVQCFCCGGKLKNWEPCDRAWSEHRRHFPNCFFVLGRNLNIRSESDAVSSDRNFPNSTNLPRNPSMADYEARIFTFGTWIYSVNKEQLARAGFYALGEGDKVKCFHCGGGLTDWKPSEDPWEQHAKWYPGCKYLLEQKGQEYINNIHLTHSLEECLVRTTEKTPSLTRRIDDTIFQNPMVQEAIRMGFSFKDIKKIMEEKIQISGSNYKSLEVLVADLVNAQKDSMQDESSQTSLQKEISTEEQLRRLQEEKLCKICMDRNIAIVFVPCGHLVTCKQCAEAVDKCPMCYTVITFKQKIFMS

| Molecule | H588A c-IAP1 protein level [1] | amount of wild type c-IAP1 [1] | level of c-IAP2 [2] | poly-ubiquitylated XIAP products [3] | stimulation of E3 activity of c-IAP compared with full length Smac ([4]; as illustrated in the Examples) | E3 activity of c-IAP1ΔBIR1 ([4]; peptides and controls, FIG. 7B) |
| --- | --- | --- | --- | --- | --- | --- |
| CC(C)C[C@@H](C=O)NC(=O)[C@H](CC(C)C)NC(=O)[C@H](CC(C)C)NC(=O)OCc1ccccc1 [MG132, reference compound] (Cbz-Leu-Leu-Leu-aldehyde) | did not cause a significant increase | dramatically increased | did not show such a significant change | more poly-ubiquitylated XIAP products could be detected |  |  |
| AVPIAQ (listed as Homo sapiens) [Smac-6] |  |  |  |  | as effectively as the full length Smac polypeptide | effectively stimulated E3 activity |
